assay: Therapeutic duration of action of an immediate release dose (from dosing instructions in labeling); type: in vivo
Excerpt: As used herein, “ATDAIRD” shall mean the average therapeutic duration of action of an effective immediate release dose” of a particular active ingredient. […] The therapeutic duration of action of a particular active ingredient can readily be determined from the dosing instructions in the labeling for immediate release products containing that particular active ingredient.

Structure (SMILES) | ATDAIRD (average therapeutic duration of action of an effective immediate release dose) [h]
CC(C)Cc1ccc(C(C)C(=O)O)cc1 (stereo not drawn) [ibuprofen, 2-(4-isobutylphenyl)-propionic acid] | 5
CC(C(=O)O)c1cccc(C(=O)c2ccccc2)c1 (stereo not drawn) [ketoprofen] | 5
COc1ccc2cc([C@H](C)C(=O)O)ccc2c1 [naproxen] | 10
